Assay results reported in patent EP0746294B1, “ABSORPTION ENHANCERS FOR TOPICAL PHARMACEUTICAL FORMULATIONS” (ODONTEX, INC., priority 1993, dated 1995).
Read-outs that look alike come from different tables or passages of the source.

Experiments:
[1] = Penetration of drugs through shed snake skin pretreated with enhancer (Franz diffusion cell, HPLC); conditions: for RE (Relative enhancement compared to Azone®) / R.E. (Relative enhancement): 32°C; for R.E. (Relative enhancement): pH 7.0, relative to control (=1)
Description: The penetration promoting activity of DAIPD was compared to that of Azone®, taken as a typical enhancer, using shed snake skin as a model membrane. […] The permeants were selected to provide examples of basic drugs (clonidine), neutral drugs (hydrocortisone) and acidic drugs (indomethacin).
Shed snake skins were prepared as previously reported (Büyüktimkin, S., Büyüktimkin, N., and Rytting, J.H., Synthesis and enhancing effect of dodecyl 2-(N,N-dimethylamino) propionate on the transepidermal delivery of indomethacin, clonidine, and hydrocortisone, Pharm. Res., 10: 1632-1637, 1993) and as described in U.S. Patents No. 4,980,378 and No. 5,082,866, the disclosures of which are incorporated herein by reference. Shed snake skins were stored at -20°C. Before the experiment they were allowed to come to room temperature at least 12 hours before use. To reduce the variability of results, pieces cut from the same whole snake skin were used for each set of experiments
Indomethacin, clonidine, and hydrocortisone were assayed by HPLC procedures as described earlier; see Büyüktimkin et al., (1993), above.
Pieces of shed snake skin (approximately 3 x 3 cm) were pretreated with 15 µl of enhancer (divided into three 5 µl portions) 2 hr before the experiment. After mounting the skin on top of a Franz receptor cell filled with pH 7.0 (0.1 M) phosphate buffer, the donor cell was clamped on the top of the receptor cell. An aliquot of 0.5 ml of a suspension of hydrocortisone or indomethacin, prepared by suspending 50 mg or 25 mg of the drugs respectively, in 25 ml of the same buffer and stirring for 24 hr at 32°C, or a solution of clonidine (2%) in the same buffer were added to the donor cell. The solution in the receptor compartment was stirred by a magnetic stirrer. At appropriate time intervals samples were withdrawn from the receptor compartment and analyzed by HPLC.

[2] = cited from earlier work
porcine esterase = test: Biodegradability of the enhancer in the presence of porcine esterase (HPLC disappearance of enhancer peak); format: in vitro ADME; conditions: 32°C, pH 7.0
Description: A 0.1 ml aliquot of porcine esterase (235 units per mg protein) was diluted to 100 ml with pH 7.0 phosphate buffer. The enhancer solution was prepared by dissolving -12 mg (-0.045 mmoles) of the enhancer in 10 ml acetonitrile. An aliquot of 100 µl of this solution was transferred into a 10 ml volumetric flask. 9.8 ml of pH 7.0 buffer and 100 µl diluted esterase solution were added. The mixture was kept in a water bath at 32°C with constant stirring. The disappearance of the enhancer peak was monitored by HPLC. The absorbance wavelength was 204 nm. The solvent system was a mixture of acetonitrile and 0.02 M aqueous sodium hexanesulfonate (7:4) with a flow rate of 0.9 ml/min. The retention time of DAIPD was 3.95 min. The kinetic runs were done in triplicate.
The existence of esterase activity has been reported in shed snake skin (Nghiem, B.T., and Higuchi, T., Esterase activity in snake skin, Int. J. Pharm. 44: 125-130, 1988) . To confirm the biodegradability of DAIPD, its fragmentation in the presence of porcine esterase was examined. […] Esterase-catalyzed biodegradability of the enhancer is therefore confirmed. […] (Hirvonen, J., Paronen, P., and Urtti, A., Reversible enhancement of transdermal propranolol by dodecyl N,N-dimethylamino acetate, 18th International Symposium on Controlled Release of Bioactive Materials, July 8-11, 1991, Amsterdam, p 31).

[3] = n-octanol/pH 7.0 buffer; cited from earlier work

SMILES | RE (Relative enhancement compared to Azone®) ([1]; Clonidine) | RE (Relative enhancement compared to Azone®) ([1]; Hydrocortisone) | RE (Relative enhancement compared to Azone®) ([1]; Indomethacin) | R.E. (Relative enhancement) ([1]; clonidine) | R.E. (Relative enhancement) ([1]; hydrocortisone) | R.E. (Relative enhancement) ([1]; indomethacin) | log P [3] | other results
CCCCCCCCCCCCN1CCCCCC1=O [Azone®, 1-dodecylazacycloheptane-2-one] | 1 | 1 | 1 | 13 | 41 | 46 | – | RE (Relative enhancement compared to Azone®) ([1]; Prazosin (45% ethanolic solution)): 1; RE (Relative enhancement compared to Azone®) ([1]; Prostaglandin E1): 1; enhancement of transdermal delivery of propranolol following pretreatment ([2]; after a week): the enhancement still existed
CCCCCCCCCCCC(=O)OC(C)CN(C)C (stereo not shown) [DAIPD, 1-(N,N-dimethylamino)-2-propanol dodecanoate] | approximately two-fold | approximately two-fold | approximately equal to that of Azone® | 27 | 88 | 53 | – | half-life at 45 µM (porcine esterase; pig, porcine esterase in phosphate buffer, degradation): 1.32 h; kobs (porcine esterase; pseudo first order degradation): 0.0087 min⁻¹; Lag times ([1]; permeation of Clonidine, standard deviation in brackets): No lag time enhancement was found
CCCCCCCCCCCCOC(=O)CN(C)C [DDAA, dodecyl N,N-dimethylamino acetate] | – | – | – | – | – | – | – | enhancement of transdermal delivery of propranolol following pretreatment ([2]; after 4 days): no longer enhanced
Clc1cccc(Cl)c1N=C1NCCN1 [clonidine] | – | – | – | – | – | – | 0.4 | –
C[C@]12CCC(=O)C=C1CC[C@@H]1[C@@H]2[C@@H](O)C[C@@]2(C)[C@H]1CC[C@]2(O)C(=O)CO [hydrocortisone] | – | – | – | – | – | – | 0.8 | –
COc1ccc2c(c1)c(CC(=O)O)c(C)n2C(=O)c1ccc(Cl)cc1 [indomethacin] | – | – | – | – | – | – | 1.2 | –
